Earlier results in patent publication US8748497B2, “Optimized fluorocarbon emulsions for blood substitutes and other therapeutic uses” (Alliance Pharmaceutical Corp., priority 2006, dated 2014).

Settings: components of FLUOSOL; cited from earlier work

SMILES: FC1(F)C(F)(F)C(F)(F)C2(F)C(F)(F)C(F)(F)C(F)(F)C(F)(F)C2(F)C1(F)F (centres unmarked) [F-decalin, perfluorodecalin]
- rate constant for RES elimination (k24): 0.10 day⁻¹

SMILES: FC(F)(F)C(F)(F)C(F)(F)N(C(F)(F)C(F)(F)C(F)(F)F)C(F)(F)C(F)(F)C(F)(F)F [F-tripropylamine, perfluorotripropylamine]
- rate constant for RES elimination (k24): 0.011 day⁻¹
